The values below are quoted from earlier work in PubChem BioAssay AID1259409 (Chemical Carcinogenesis Research Information System (CCRIS), 2018).

The structures appear in SMILES notation.

This data set concerns rodent chemically induced tumor inhibition, incidence and multiplicity. In words: CCRIS tumor inhibitor studies.

For the molecule `COc1cc(/C=C/C(=O)O)ccc1O`, the “tumour outcome (control, treated, inhibition, significance)” value is, setting by setting: (Carcinogen: AZOXYMETHANE [25843-45-2], Dose [Inhibitor]: 0, 500 PPM IN DIET FOR 23 WK BEGINNING POST LAST CARCINOGEN DOSE (STUDY DURATION: 35 WK), Route [Inhibitor]: ORAL, Species: RAT, Strain/Sex: F344/MALE, Target Tissue: Type of Lesion: LARGE INTESTINE: TUMOR, Dose [Carcinogen]: 15 MG/KG 3X/WK FOR 12 WK (STUDY DURATION: 35 WK), Promoter: NONE) 11%, 32%, -190%, not significant; (Carcinogen: AZOXYMETHANE [25843-45-2], Dose [Inhibitor]: 0, 500 PPM IN DIET FOR 23 WK BEGINNING POST LAST CARCINOGEN DOSE (STUDY DURATION: 35 WK), Route [Inhibitor]: ORAL, Species: RAT, Strain/Sex: F344/MALE, Target Tissue: Type of Lesion: SMALL INTESTINE: TUMOR, Dose [Carcinogen]: 15 MG/KG 3X/WK FOR 12 WK (STUDY DURATION: 35 WK), Promoter: NONE) 18%, 27%, -50%, not significant; (Carcinogen: AZOXYMETHANE [25843-45-2], Dose [Inhibitor]: 250 PPM IN DIET FOR 4 WK BEGINNING 1 WK PRIOR TO FIRST CARCINOGEN DOSE (STUDY DURATION: 35 WK), Route [Inhibitor]: ORAL, Species: RAT, Strain/Sex: F344/MALE, Target Tissue: Type of Lesion: LARGE INTESTINE: TUMOR, Dose [Carcinogen]: 15 MG/KG 1X/WK FOR 3 WK (STUDY DURATION: 35 WK), Promoter: NONE) 59%, 32%, 46%, not significant; (Carcinogen: AZOXYMETHANE [25843-45-2], Dose [Inhibitor]: 250 PPM IN DIET FOR 4 WK BEGINNING 1 WK PRIOR TO FIRST CARCINOGEN DOSE (STUDY DURATION: 35 WK), Route [Inhibitor]: ORAL, Species: RAT, Strain/Sex: F344/MALE, Target Tissue: Type of Lesion: SMALL INTESTINE: TUMOR, Dose [Carcinogen]: 15 MG/KG 1X/WK FOR 3 WK (STUDY DURATION: 35 WK), Promoter: NONE) 23%, 5%, 78%, not significant; (Carcinogen: AZOXYMETHANE [25843-45-2], Dose [Inhibitor]: 250 PPM IN DIET FOR 31 WK BEGINNING 1 WK POST LAST CARCINOGEN DOSE (STUDY DURATION: 35 WK), Route [Inhibitor]: ORAL, Species: RAT, Strain/Sex: F344/MALE, Target Tissue: Type of Lesion: LARGE INTESTINE: TUMOR, Dose [Carcinogen]: 15 MG/KG 1X/WK FOR 3 WK (STUDY DURATION: 35 WK), Promoter: NONE) 59%, 41%, 31%, not significant; (Carcinogen: AZOXYMETHANE [25843-45-2], Dose [Inhibitor]: 250 PPM IN DIET FOR 31 WK BEGINNING 1 WK POST LAST CARCINOGEN DOSE (STUDY DURATION: 35 WK), Route [Inhibitor]: ORAL, Species: RAT, Strain/Sex: F344/MALE, Target Tissue: Type of Lesion: SMALL INTESTINE: TUMOR, Dose [Carcinogen]: 15 MG/KG 1X/WK FOR 3 WK (STUDY DURATION: 35 WK), Promoter: NONE) 23%, 23%, 0%, not significant. The “tumour outcome (control, treated, inhibition, significance)” value reads like this: (Carcinogen: AZOXYMETHANE [25843-45-2], Dose [Inhibitor]: 500 PPM IN DIET FOR 4 WK BEGINNING 1 WK PRIOR TO FIRST CARCINOGEN DOSE (STUDY DURATION: 35 WK), Route [Inhibitor]: ORAL, Species: RAT, Strain/Sex: F344/MALE, Target Tissue: Type of Lesion: LARGE INTESTINE: TUMOR, Dose [Carcinogen]: 15 MG/KG 1X/WK FOR 3 WK (STUDY DURATION: 35 WK), Promoter: NONE) 59%, 32%, 46%, not significant; (Carcinogen: AZOXYMETHANE [25843-45-2], Dose [Inhibitor]: 500 PPM IN DIET FOR 4 WK BEGINNING 1 WK PRIOR TO FIRST CARCINOGEN DOSE (STUDY DURATION: 35 WK), Route [Inhibitor]: ORAL, Species: RAT, Strain/Sex: F344/MALE, Target Tissue: Type of Lesion: SMALL INTESTINE: TUMOR, Dose [Carcinogen]: 15 MG/KG 1X/WK FOR 3 WK (STUDY DURATION: 35 WK), Promoter: NONE) 23%, 5%, 78%, not significant; (Carcinogen: AZOXYMETHANE [25843-45-2], Dose [Inhibitor]: 500 PPM IN DIET FOR 31 WK BEGINNING 1 WK POST LAST CARCINOGEN DOSE (STUDY DURATION: 35 WK), Route [Inhibitor]: ORAL, Species: RAT, Strain/Sex: F344/MALE, Target Tissue: Type of Lesion: LARGE INTESTINE: TUMOR, Dose [Carcinogen]: 15 MG/KG 1X/WK FOR 3 WK (STUDY DURATION: 35 WK), Promoter: NONE) 59%, 36%, 39%, not significant; (Carcinogen: AZOXYMETHANE [25843-45-2], Dose [Inhibitor]: 500 PPM IN DIET FOR 31 WK BEGINNING 1 WK POST LAST CARCINOGEN DOSE (STUDY DURATION: 35 WK), Route [Inhibitor]: ORAL, Species: RAT, Strain/Sex: F344/MALE, Target Tissue: Type of Lesion: SMALL INTESTINE: TUMOR, Dose [Carcinogen]: 15 MG/KG 1X/WK FOR 3 WK (STUDY DURATION: 35 WK), Promoter: NONE) 23%, 27%, -17%, not significant; (Carcinogen: BENZO[A]PYRENE, 50-32-8, Dose [Inhibitor]: 0.06 MMOL/G OF DIET DAILY STARTING 8 D BEFORE AND CONTINUING THROUGH 3 D AFTER CARCINOGEN TREATMENT FOLLOWED BY OBSERVAT, Route [Inhibitor]: ORAL, Species: MOUSE, Strain/Sex: ICR/FEMALE, Target Tissue: Type of Lesion: FORESTOMACH: NEOPLASM, Dose [Carcinogen]: 1 MG IN 0.2 ML CORN OIL 2/WK FOR 4 WK, Promoter: NONE USED) 100%, 90%, 10%, not significant; (Carcinogen: BENZO[A]PYRENE, 50-32-8, Dose [Inhibitor]: 100 MG/KG ADMINISTERED 1 HR BEFORE AND 6, 24, 48 AND 72 HR AFTER BENZO[A]PYRENE TREATMENT (STUDY DURATION: 6 MO), Route [Inhibitor]: INTRAPERITONEAL, Species: MOUSE, Strain/Sex: STRAIN-A/MALE, Target Tissue: Type of Lesion: LUNG: ADENOMA, Dose [Carcinogen]: 100 MG/KG ONCE, Promoter: NONE USED) 18/18 (100%), 18/18 (100%), 0%, not significant. Besides, the “tumour outcome (control, treated, inhibition, significance)” value is 18/18 (100%), 18/18 (100%), 0%, not significant (Carcinogen: BENZO[A]PYRENE, 50-32-8, Dose [Inhibitor]: 100 MG/KG ADMINISTERED 1 HR BEFORE AND 6, 24, 48 AND 72 HR AFTER CARCINOGEN TREATMENT FOLLOWED BY 6 MO OBSERVATION PERIO, Route [Inhibitor]: INTRAPERITONEAL, Species: MOUSE, Strain/Sex: STRAIN A/MALE, Target Tissue: Type of Lesion: LUNG: ADENOMA, Dose [Carcinogen]: 100 MG/KG ONCE, Promoter: NONE USED) and 9/15 (60%), 1/14 (7%), 88%, p=0.0035 (Carcinogen: N-NITROQUINOLINE-1-OXIDE, 56-57-5, Dose [Inhibitor]: 0, 500 PPM IN DIET FOR 7 WK BEGINNING 1 WK PRIOR TO START OF CARCINOGEN TREATMENT (STUDY DURATION: 32 WK), Route [Inhibitor]: ORAL, Species: RAT, Strain/Sex: F344\MALE, Target Tissue: Type of Lesion: TONGUE: CARCINOMA, Dose [Carcinogen]: 20 PPM IN DRINKING WATER FOR 5 WK, Promoter: NONE USED).
